Measurements as given in patent publication US12258327B2, “5-membered heteroaryl-containing aminopyridine compounds as EGFR inhibitors” (YUHAN CORPORATION, priority 2021, dated 2025).
Where two headings read alike, the source gives them in different places.

Experiments:
EGFR del19/T790M/C797S = EGFR del19/T790M/C797S (Homo sapiens, UniProt P00533, C797S/DEL746-750/T790M); assay: Biochemical EGFR kinase assay (Lance Ultra TR-FRET), triple mutant del19/T790M/C797S
How it was run: (§1)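 Enzyme reactions lasted 1 hour at room temperature with test compounds between 0.003 and 10 μM, followed by 10 mM EDTA quench.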

EGFR L858R/T790M/C797S = EGFR L858R/T790M/C797S (Homo sapiens, UniProt P00533, C797S/L858R/T790M); assay: Biochemical EGFR kinase assay (Lance Ultra TR-FRET), triple mutant L858R/T790M/C797S
Sequence of EGFR L858R/T790M/C797S (P00533 25-1210 T790M/C797S/L858R): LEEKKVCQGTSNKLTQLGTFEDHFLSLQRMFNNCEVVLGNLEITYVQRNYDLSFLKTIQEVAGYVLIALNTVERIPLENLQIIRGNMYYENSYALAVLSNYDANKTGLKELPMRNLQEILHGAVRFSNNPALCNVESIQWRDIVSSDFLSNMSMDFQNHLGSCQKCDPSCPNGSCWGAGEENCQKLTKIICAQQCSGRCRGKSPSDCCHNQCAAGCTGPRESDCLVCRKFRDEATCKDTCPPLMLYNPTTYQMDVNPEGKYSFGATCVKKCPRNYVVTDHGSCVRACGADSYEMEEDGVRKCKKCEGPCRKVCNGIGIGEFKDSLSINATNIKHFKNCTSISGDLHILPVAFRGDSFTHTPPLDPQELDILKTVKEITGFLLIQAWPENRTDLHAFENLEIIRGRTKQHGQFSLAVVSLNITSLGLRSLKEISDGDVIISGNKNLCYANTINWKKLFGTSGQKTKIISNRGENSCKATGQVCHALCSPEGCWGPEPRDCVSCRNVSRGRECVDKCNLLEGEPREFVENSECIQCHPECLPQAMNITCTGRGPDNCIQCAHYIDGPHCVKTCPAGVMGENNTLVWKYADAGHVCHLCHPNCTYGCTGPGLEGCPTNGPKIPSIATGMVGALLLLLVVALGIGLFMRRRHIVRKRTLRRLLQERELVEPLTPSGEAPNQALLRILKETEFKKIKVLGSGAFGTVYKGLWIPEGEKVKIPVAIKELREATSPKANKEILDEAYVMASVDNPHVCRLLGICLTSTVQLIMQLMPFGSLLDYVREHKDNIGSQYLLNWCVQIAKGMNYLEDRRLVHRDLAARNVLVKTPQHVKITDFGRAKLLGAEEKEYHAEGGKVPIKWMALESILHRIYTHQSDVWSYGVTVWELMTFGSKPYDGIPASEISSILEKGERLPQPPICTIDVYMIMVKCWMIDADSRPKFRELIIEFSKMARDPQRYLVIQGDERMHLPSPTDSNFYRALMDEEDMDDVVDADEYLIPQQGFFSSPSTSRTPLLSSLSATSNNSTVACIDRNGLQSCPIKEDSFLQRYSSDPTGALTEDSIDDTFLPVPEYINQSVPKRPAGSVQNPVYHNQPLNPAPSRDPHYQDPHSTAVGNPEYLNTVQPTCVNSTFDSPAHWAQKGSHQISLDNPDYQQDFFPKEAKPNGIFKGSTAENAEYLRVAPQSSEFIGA
How it was run: as §1

EGFR del19/C797S = EGFR del19/C797S (Homo sapiens, UniProt P00533, C797S/DEL746-750); assay: Biochemical EGFR kinase assay (Lance Ultra TR-FRET), double mutant del19/C797S
Sequence of EGFR del19/C797S (P00533 with tags, fused parts or gaps DEL746-750/C797S): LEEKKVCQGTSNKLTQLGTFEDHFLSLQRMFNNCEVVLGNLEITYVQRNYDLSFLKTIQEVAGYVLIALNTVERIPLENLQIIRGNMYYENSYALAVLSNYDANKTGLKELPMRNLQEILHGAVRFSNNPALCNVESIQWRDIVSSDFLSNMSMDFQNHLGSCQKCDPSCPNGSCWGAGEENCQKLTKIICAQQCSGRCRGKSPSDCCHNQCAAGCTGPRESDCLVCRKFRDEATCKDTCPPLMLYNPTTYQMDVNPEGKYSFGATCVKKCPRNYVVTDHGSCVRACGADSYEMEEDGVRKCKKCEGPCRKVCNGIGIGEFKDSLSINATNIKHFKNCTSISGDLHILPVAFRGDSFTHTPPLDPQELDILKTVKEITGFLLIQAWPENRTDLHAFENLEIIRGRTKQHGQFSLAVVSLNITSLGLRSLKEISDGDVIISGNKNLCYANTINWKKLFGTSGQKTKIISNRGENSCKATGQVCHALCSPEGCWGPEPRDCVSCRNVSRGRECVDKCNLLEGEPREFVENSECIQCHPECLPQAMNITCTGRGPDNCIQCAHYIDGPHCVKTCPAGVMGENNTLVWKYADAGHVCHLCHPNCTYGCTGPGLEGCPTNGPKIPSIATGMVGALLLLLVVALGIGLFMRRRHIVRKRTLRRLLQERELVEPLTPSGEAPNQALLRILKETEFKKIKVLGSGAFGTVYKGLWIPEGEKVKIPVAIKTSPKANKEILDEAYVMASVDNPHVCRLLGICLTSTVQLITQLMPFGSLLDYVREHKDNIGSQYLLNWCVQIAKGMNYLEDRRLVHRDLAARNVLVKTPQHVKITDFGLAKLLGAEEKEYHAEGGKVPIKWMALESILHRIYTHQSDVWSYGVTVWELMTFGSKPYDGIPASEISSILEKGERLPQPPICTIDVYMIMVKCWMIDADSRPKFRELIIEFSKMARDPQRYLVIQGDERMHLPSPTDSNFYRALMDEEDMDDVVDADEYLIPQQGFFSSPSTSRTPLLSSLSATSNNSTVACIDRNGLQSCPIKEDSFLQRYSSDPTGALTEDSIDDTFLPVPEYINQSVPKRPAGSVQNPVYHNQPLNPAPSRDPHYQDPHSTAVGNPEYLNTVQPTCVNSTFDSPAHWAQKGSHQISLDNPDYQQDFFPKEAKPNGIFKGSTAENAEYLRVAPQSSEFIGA
How it was run: as §1

EGFR L858R/C797S = EGFR L858R/C797S (Homo sapiens, UniProt P00533, C797S/L858R); assay: Biochemical EGFR kinase assay (Lance Ultra TR-FRET), double mutant L858R/C797S
Sequence of EGFR L858R/C797S (P00533 25-1210 C797S/L858R): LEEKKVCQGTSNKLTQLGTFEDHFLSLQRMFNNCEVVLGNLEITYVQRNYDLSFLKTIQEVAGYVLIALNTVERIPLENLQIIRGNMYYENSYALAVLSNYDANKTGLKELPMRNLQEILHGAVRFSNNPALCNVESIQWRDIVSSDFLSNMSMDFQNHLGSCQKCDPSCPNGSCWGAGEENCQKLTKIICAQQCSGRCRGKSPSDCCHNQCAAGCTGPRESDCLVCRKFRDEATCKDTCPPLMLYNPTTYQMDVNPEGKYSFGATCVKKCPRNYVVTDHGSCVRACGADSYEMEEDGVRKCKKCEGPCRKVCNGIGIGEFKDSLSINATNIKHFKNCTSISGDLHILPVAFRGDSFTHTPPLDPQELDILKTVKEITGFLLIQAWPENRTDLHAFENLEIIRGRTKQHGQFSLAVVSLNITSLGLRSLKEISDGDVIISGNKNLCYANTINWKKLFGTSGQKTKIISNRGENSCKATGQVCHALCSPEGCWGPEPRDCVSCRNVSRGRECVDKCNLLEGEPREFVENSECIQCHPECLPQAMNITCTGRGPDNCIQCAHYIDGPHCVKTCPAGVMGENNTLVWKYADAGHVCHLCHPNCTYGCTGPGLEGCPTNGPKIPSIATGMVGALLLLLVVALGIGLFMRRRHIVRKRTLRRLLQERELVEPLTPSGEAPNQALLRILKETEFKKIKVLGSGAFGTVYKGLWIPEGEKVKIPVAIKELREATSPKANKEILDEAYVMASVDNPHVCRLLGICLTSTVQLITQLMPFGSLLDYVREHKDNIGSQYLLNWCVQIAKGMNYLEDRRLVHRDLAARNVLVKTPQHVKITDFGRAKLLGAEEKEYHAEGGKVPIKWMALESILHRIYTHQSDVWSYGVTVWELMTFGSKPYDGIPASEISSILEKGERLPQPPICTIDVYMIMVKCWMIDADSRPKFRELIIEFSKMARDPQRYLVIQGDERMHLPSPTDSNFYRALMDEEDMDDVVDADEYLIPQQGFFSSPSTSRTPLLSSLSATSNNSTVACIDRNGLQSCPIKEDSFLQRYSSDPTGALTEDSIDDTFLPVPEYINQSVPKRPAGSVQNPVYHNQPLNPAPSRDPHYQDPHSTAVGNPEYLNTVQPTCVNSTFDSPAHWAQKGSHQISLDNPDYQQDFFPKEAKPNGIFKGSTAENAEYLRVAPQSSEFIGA
How it was run: as §1

EGFR wildtype (WT) = EGFR wildtype (WT) (Homo sapiens, UniProt P00533); assay: Biochemical EGFR kinase assay (Lance Ultra TR-FRET), wildtype
How it was run: as §1

[1] = IC50 del19/T790M/C797S (nM) 100 μM ATP, 100 μM ATP
[2] = Km ATP, read-out: IC50 del19/T790M/C797S (nM) Km ATP
[3] = IC50 L858R/T790M/C797S (nM) 100 μM ATP, 100 μM ATP
[4] = Km ATP, read-out: IC50 L858R/T790M/C797S (nM) Km ATP
[5] = IC50 del19/C797S (nM) 100 μM ATP, 100 μM ATP
[6] = IC50 L858R/C797S (nM) 100 μM ATP, 100 μM ATP
[7] = IC50 WT (nM) 100 μM ATP, 100 μM ATP
[8] = Km ATP, read-out: IC50 del19/C797S (nM) Km ATP
[9] = Km ATP, read-out: IC50 L858R/C797S (nM) Km ATP
[10] = Km ATP, read-out: IC50 WT (nM) Km ATP

Sequence of EGFR del19/T790M/C797S (P00533 with tags, fused parts or gaps DEL746-750/T790M/C797S): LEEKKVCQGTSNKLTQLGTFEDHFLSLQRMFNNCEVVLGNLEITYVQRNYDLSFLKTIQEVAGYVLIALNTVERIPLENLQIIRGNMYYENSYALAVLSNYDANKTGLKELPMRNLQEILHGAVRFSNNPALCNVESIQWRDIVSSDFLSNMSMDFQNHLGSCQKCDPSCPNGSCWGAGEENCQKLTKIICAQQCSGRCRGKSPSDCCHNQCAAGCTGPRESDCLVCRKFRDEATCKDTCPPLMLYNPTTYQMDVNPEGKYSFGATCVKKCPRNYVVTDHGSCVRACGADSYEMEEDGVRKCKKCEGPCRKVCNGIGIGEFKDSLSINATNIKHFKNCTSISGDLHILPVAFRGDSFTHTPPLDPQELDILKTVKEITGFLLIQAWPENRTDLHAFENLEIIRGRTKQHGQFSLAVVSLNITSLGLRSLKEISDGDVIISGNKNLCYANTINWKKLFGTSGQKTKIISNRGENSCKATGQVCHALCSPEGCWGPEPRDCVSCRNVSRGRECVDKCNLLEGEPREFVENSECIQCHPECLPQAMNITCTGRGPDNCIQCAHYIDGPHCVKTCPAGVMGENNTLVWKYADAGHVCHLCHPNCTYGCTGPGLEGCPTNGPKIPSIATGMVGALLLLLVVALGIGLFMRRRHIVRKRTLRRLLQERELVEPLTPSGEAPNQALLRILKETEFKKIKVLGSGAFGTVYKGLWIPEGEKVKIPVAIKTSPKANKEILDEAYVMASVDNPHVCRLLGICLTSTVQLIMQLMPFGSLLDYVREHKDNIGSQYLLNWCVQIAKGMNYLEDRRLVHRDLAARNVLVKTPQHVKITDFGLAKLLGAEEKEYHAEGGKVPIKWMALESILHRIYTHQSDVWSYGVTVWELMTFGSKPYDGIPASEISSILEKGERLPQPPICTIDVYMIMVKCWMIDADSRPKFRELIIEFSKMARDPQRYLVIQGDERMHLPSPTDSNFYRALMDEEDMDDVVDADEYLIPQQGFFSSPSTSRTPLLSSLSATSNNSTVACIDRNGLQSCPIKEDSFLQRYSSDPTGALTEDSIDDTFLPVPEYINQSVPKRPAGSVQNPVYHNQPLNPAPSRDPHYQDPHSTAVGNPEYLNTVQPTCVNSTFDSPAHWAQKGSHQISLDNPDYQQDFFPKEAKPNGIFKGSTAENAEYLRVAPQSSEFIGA

IC50 (EGFR del19/T790M/C797S; [1]) | IC50 (EGFR del19/T790M/C797S; [2]) | IC50 (EGFR L858R/T790M/C797S; [3]) | IC50 (EGFR L858R/T790M/C797S; [4]) | IC50 (EGFR del19/C797S; [5]) | IC50 (EGFR L858R/C797S; [6]) | IC50 (EGFR wildtype (WT); [7]) | IC50 (EGFR del19/C797S; [8]) | IC50 (EGFR L858R/C797S; [9]) | IC50 (EGFR wildtype (WT); [10]) | SMILES
2.4 nM | 1.3 nM | 6.6 nM | 1.3 nM | 353 nM | > 10000 nM | > 10000 nM | – | – | – | COc1ncc(-c2nccc(Nc3cc(N[C@H]4CC[C@@](C)(O)CC4)c(-c4ccn(C(F)F)n4)cn3)n2)cn1 [Example 312, (1s,4s)-4-((5-(1-(Difluoromethyl)-1H-pyrazol-3-yl)-2-((2′-methoxy-[2,5′-bipyrimidin]-4-yl)amino)pyridin-4-yl)amino)-1-methylcyclohexan-1-ol]
2.1 nM | – | 12.6 nM | – | 74.5 nM | 627 nM | > 10000 nM | 39.9 nM | 146 nM | 1610 nM | CS(=O)(=O)c1ccccc1Nc1nccc(Nc2cc(N[C@H]3CC[C@@](C)(O)CC3)c(-c3ccn(C(F)F)n3)cn2)n1 [Example 313, (1s,4s)-4-((5-(1-(Difluoromethyl)-1H-pyrazol-3-yl)-2-((2-((2-(methylsulfonyl)phenyl)amino)pyrimidin-4-yl)amino)pyridin-4-yl)amino)-1-methylcyclohexan-1-ol]
5.2 nM | 1.9 nM | 1.9 nM | 0.5 nM | 300 nM | 1480 nM | > 10000 nM | 133 nM | 75.2 nM | 595 nM | CC1(O)CCC(Nc2cc(Nc3ccnc(-c4cnn(C5CCCCO5)c4)n3)ncc2-c2ccn(C(F)F)n2)CC1 (stereo not drawn) [Example 314, (1s,4s)-4-((5-(1-(Difluoromethyl)-1H-pyrazol-3-yl)-2-((2-(1-(tetrahydro-2H-pyran-2-yl)-1H-pyrazol-4-yl)pyrimidin-4-yl)amino)pyridin-4-yl)amino)-1-methylcyclohexan-1-ol]
1.9 nM | 0.6 nM | 1.1 nM | 0.5 nM | 11 nM | 37.4 nM | > 10000 nM | 6.3 nM | 5.4 nM | 14.2 nM | Cc1nn(S(=O)(=O)N(C)C)cc1-c1nccc(Nc2cc(N[C@H]3CC[C@@](C)(O)CC3)c(-c3ccn(C(F)F)n3)cn2)n1 [Example 315, 4-(4-((5-(1-(Difluoromethyl)-1H-pyrazol-3-yl)-4-(((1s,4s)-4-hydroxy-4-methylcyclohexyl)amino)pyridin-2-yl)amino)pyrimidin-2-yl)-N,N,3-trimethyl-1H-pyrazole-1-sulfonamide]
0.7 nM | 0.4 nM | 1 nM | 0.2 nM | 10.5 nM | 406 nM | > 10000 nM | 6 nM | 11.2 nM | 46 nM | C[C@]1(O)CC[C@@H](Nc2cc(Nc3nc(-c4cnn(S(=O)(=O)C5CC5)c4)ncc3F)ncc2-c2ccn(C(F)F)n2)CC1 [Example 316, (1s,4s)-4-((2-((2-(1-(Cyclopropylsulfonyl)-1H-pyrazol-4-yl)-5-fluoropyrimidin-4-yl)amino)-5-(1-(difluoromethyl)-1H-pyrazol-3-yl)pyridin-4-yl)amino)-1-methylcyclohexan-1-ol]
0.3 nM | 0.5 nM | 0.2 nM | 0.1 nM | 16.8 nM | 53.6 nM | > 10000 nM | 5.5 nM | 2.2 nM | 12.1 nM | CN(C)S(=O)(=O)n1cc(-c2nccc(Nc3cc(N[C@H]4CC[C@@](C)(O)CC4)c(-c4ccn(C(F)F)n4)cn3)n2)cn1 [Example 317, 4-(4-((5-(1-(Difluoromethyl)-1H-pyrazol-3-yl)-4-(((1s,4s)-4-hydroxy-4-methylcyclohexyl)amino)pyridin-2-yl)amino)pyrimidin-2-yl)-N,N-dimethyl-1H-pyrazole-1-sulfonamide]
3 nM | 3.6 nM | 4.8 nM | 0.5 nM | 290 nM | 277 nM | > 10000 nM | 57.1 nM | 42.7 nM | 255 nM | CC1(O)CCC(Nc2cc(Nc3ccnc(-c4cnn(C5CCCO5)c4)n3)ncc2-c2ccn(C(F)F)n2)CC1 (stereo not drawn) [Example 318, (1s,4s)-4-((5-(1-(Difluoromethyl)-1H-pyrazol-3-yl)-2-((2-(1-(tetrahydrofuran-2-yl)-1H-pyrazol-4-yl)pyrimidin-4-yl)amino)pyridin-4-yl)amino)-1-methylcyclohexan-1-ol]
– | 0.4 nM | – | 0.3 nM | – | – | – | 47.3 nM | 16.9 nM | 184 nM | Cc1nn(C)c(F)c1-c1nccc(Nc2cc(N[C@H]3CC[C@@](C)(O)CC3)c(-c3ccn(C(F)F)n3)cn2)n1 [Example 319, (1s,4s)-4-((5-(1-(Difluoromethyl)-1H-pyrazol-3-yl)-2-((2-(5-fluoro-1,3-dimethyl-1H-pyrazol-4-yl)pyrimidin-4-yl)amino)pyridin-4-yl)amino)-1-methylcyclohexan-1-ol]
– | 0.4 nM | – | 0.2 nM | – | – | – | 3.9 nM | 1.8 nM | 33.5 nM | Cc1nn(CC(F)(F)F)cc1-c1nccc(Nc2cc(N[C@H]3CC[C@@](C)(O)CC3)c(-c3ccn(C(F)F)n3)cn2)n1 [Example 320, (1s,4s)-4-((5-(1-(Difluoromethyl)-1H-pyrazol-3-yl)-2-((2-(3-methyl-1-(2,2,2-trifluoroethyl)-1H-pyrazol-4-yl)pyrimidin-4-yl)amino)pyridin-4-yl)amino)-1-methylcyclohexan-1-ol]
– | 2.8 nM | – | 2.3 nM | – | – | – | 20.2 nM | 10.4 nM | 74.8 nM | Cc1nn(CC(F)F)c(C)c1-c1nccc(Nc2cc(N[C@H]3CC[C@@](C)(O)CC3)c(-c3ccn(C(F)F)n3)cn2)n1 [Example 321, (1s,4s)-4-((2-((2-(1-(2,2-Difluoroethyl)-3,5-dimethyl-1H-pyrazol-4-yl)pyrimidin-4-yl)amino)-5-(1-(difluoromethyl)-1H-pyrazol-3-yl)pyridin-4-yl)amino)-1-methylcyclohexan-1-ol]
– | 1.9 nM | – | 0.6 nM | – | – | – | 176 nM | 15.5 nM | 1520 nM | C[C@]1(O)CC[C@@H](Nc2cc(Nc3ccnc(-c4cnn(CC(F)(F)C(F)F)c4)n3)ncc2-c2ccn(C(F)F)n2)CC1 [Example 322, (1s,4s)-4-((5-(1-(Difluoromethyl)-1H-pyrazol-3-yl)-2-((2-(1-(2,2,3,3-tetrafluoropropyl)-1H-pyrazol-4-yl)pyrimidin-4-yl)amino)pyridin-4-yl)amino)-1-methylcyclohexan-1-ol]
– | 10.4 nM | – | 4.6 nM | – | – | – | 1060 nM | 143 nM | 466 nM | C[C@]1(O)CC[C@@H](Nc2cc(Nc3ccnc(-c4cnn(S(=O)(=O)N5CCCC5)c4)n3)ncc2-c2ccn(C(F)F)n2)CC1 [Example 323, (1s,4s)-4-((5-(1-(Difluoromethyl)-1H-pyrazol-3-yl)-2-((2-(1-(pyrrolidin-1-ylsulfonyl)-1H-pyrazol-4-yl)pyrimidin-4-yl)amino)pyridin-4-yl)amino)-1-methylcyclohexan-1-ol]
– | 4.6 nM | – | 1.7 nM | – | – | – | 66.9 nM | 13.2 nM | 55.5 nM | C[C@]1(O)CC[C@@H](Nc2cc(Nc3ccnc(-c4cnn(S(=O)(=O)N5CC(F)C5)c4)n3)ncc2-c2ccn(C(F)F)n2)CC1 [Example 324, (1s,4s)-4-((5-(1-(Difluoromethyl)-1H-pyrazol-3-yl)-2-((2-(1-((3-fluoroazetidin-1-yl)sulfonyl)-1H-pyrazol-4-yl)pyrimidin-4-yl)amino)pyridin-4-yl)amino)-1-methylcyclohexan-1-ol]
– | 0.2 nM | – | 0.1 nM | – | – | – | 0.6 nM | 0.3 nM | 1.2 nM | CN(C)CC[C@H]1CC[C@@H](Nc2cc(Nc3nc(-c4cnn(S(=O)(=O)C5CC5)c4)ncc3F)ncc2-c2ccn(C(F)F)n2)CC1 [Example 325, N^2-(2-(1-(Cyclopropylsulfonyl)-1H-pyrazol-4-yl)-5-fluoropyrimidin-4-yl)-5-(1-(difluoromethyl)-1H-pyrazol-3-yl)-N^4-((1s,4s)-4-(2-(dimethylamino)ethyl)cyclohexyl)pyridine-2,4-diamine]
– | 1.4 nM | – | 0.7 nM | – | – | – | 13.3 nM | 7.9 nM | 18.8 nM | Cc1nn(CC(F)(F)F)cc1-c1nccc(Nc2cc(N[C@H]3CC[C@@H](CCO)CC3)c(-c3ccn(C(F)F)n3)cn2)n1 [Example 326, 2-((1s,4s)-4-((5-(1-(Difluoromethyl)-1H-pyrazol-3-yl)-2-((2-(3-methyl-1-(2,2,2-trifluoroethyl)-1H-pyrazol-4-yl)pyrimidin-4-yl)amino)pyridin-4-yl)amino)cyclohexyl)ethan-1-ol]
